According to US12157741B2, “Macrocyclic inhibitors of DYRK1A” (DANA-FARBER CANCER INSTITUTE, INC., priority 2018, dated 2024):
Read-outs that look alike come from different tables or passages of the source.

Assays:
various enzymes [1] = biological target: T1, various enzymes (Homo sapiens, UniProt Q8IVH8); details: MAP4K3; 1 uM
T1 sequence (Q8IVH8 1-894): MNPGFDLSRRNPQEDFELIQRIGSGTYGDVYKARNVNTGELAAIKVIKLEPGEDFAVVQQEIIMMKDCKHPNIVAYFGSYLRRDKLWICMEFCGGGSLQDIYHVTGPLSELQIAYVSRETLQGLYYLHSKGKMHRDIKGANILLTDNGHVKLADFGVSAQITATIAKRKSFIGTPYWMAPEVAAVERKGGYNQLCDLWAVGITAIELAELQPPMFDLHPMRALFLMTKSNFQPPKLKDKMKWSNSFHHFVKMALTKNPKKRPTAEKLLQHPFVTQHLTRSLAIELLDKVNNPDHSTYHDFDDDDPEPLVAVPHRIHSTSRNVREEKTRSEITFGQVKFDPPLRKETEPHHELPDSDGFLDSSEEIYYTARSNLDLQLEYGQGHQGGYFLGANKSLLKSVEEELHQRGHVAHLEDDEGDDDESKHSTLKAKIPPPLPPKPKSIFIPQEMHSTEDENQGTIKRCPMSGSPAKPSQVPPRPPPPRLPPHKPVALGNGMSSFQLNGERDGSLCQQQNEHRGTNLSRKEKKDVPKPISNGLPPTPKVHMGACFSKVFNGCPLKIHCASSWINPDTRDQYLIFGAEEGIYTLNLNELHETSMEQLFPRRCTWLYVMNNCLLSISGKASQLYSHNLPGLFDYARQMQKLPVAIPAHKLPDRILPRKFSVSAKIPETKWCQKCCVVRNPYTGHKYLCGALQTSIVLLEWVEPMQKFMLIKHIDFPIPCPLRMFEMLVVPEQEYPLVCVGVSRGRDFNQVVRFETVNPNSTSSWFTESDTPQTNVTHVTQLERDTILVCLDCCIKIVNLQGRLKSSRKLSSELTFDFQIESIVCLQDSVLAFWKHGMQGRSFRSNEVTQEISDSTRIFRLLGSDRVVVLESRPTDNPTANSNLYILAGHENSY
Description: (§1) Ambit profiling from Eurofins (formerly Discoverx) was conducted in accordance with the manufacturer's instructions.

various enzymes [2] = biological target: T2, various enzymes (Homo sapiens, UniProt O75385); details: ULK1; 1 uM
T2 sequence (O75385 1-1050): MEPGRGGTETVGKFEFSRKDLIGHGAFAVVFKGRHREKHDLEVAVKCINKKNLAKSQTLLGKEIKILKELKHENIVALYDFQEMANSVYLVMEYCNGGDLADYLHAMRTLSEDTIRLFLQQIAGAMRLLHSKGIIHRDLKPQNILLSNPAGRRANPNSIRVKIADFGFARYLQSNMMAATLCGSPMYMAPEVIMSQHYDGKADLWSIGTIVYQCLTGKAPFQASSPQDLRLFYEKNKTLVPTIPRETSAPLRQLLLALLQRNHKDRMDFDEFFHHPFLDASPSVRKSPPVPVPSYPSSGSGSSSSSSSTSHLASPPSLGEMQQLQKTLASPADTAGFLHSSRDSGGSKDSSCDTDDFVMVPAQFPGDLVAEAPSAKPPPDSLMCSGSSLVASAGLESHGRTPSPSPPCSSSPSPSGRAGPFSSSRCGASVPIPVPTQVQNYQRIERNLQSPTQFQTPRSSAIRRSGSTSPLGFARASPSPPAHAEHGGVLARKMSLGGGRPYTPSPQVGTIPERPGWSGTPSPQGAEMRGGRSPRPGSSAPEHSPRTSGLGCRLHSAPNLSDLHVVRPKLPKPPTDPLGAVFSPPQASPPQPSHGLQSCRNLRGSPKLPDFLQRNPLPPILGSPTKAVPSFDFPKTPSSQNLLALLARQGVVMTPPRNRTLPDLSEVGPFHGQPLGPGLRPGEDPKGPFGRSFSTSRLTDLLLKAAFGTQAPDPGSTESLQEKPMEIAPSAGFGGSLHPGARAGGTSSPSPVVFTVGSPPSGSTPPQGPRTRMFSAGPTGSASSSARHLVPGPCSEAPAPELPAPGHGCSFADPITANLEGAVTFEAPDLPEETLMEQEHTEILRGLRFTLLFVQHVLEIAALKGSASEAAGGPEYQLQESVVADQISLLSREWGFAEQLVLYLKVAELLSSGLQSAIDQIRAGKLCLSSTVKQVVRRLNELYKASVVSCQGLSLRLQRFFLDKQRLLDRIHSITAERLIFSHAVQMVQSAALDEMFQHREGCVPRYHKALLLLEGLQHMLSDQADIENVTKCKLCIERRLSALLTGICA
Description: as §1

various enzymes [3] = biological target: various enzymes (Homo sapiens, UniProt P23458); details: 1 uM
Description: as §1

various enzymes [4] = biological target: T3, various enzymes (Homo sapiens, UniProt P29323); details: EPHB2; 1 uM
T3 sequence (P29323 19-1055): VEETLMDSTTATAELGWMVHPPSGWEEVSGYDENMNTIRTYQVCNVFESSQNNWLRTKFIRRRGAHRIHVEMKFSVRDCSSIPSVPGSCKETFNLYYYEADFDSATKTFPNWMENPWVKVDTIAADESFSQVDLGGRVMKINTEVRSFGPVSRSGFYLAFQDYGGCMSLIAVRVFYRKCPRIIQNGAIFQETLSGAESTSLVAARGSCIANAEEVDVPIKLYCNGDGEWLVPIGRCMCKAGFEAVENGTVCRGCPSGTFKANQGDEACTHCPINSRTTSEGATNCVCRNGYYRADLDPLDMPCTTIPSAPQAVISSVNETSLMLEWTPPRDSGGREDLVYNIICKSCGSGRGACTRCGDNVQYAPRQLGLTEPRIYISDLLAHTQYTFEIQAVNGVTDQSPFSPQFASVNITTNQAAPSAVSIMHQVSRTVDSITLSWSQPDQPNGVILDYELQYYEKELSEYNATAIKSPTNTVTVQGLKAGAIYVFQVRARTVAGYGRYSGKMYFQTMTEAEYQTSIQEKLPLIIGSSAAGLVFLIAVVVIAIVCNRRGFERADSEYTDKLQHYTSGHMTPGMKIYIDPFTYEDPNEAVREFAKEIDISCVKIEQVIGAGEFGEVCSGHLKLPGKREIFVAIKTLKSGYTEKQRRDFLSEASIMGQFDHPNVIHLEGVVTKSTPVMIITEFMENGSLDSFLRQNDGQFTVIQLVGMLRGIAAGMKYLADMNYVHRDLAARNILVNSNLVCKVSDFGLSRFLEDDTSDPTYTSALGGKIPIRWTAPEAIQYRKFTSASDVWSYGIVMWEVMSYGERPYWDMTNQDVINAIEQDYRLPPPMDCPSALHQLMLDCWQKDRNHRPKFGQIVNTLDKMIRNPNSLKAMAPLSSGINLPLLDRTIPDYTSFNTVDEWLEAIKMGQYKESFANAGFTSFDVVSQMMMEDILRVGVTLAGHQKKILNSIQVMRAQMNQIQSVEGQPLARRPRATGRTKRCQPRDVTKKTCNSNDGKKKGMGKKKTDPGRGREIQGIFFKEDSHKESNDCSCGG
Description: as §1

Sequence of various enzymes (Homo sapiens, UniProt P23458) (P23458 whole entry): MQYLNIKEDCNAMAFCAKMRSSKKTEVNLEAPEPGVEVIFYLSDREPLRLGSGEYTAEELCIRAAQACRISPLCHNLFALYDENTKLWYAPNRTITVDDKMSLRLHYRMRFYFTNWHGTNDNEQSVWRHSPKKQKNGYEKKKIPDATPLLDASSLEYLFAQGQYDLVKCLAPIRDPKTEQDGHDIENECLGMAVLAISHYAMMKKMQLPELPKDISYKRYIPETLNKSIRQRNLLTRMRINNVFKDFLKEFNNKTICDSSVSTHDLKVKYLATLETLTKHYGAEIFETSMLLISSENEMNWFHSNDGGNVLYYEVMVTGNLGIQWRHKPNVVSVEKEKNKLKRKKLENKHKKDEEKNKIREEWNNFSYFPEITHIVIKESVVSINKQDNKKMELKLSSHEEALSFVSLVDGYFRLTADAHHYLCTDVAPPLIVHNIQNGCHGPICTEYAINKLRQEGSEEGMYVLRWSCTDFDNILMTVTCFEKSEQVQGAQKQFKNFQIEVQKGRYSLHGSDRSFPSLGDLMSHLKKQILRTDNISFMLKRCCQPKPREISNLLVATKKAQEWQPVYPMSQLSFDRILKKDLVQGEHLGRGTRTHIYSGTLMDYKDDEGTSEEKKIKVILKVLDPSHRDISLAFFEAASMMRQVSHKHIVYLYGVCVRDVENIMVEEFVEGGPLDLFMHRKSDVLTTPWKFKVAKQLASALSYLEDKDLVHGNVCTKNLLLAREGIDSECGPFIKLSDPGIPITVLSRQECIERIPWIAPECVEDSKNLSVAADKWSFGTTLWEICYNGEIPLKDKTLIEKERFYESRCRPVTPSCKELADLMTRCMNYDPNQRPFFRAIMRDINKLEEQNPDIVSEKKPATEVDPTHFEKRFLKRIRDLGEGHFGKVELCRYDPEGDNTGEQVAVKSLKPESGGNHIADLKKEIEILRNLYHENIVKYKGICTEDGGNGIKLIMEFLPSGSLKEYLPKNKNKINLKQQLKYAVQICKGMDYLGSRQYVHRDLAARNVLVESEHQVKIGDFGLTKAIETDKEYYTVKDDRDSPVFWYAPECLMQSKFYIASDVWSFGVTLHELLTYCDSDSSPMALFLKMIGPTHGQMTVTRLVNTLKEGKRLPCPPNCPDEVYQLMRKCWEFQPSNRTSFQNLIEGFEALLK

Compound	Ambit profiling (various enzymes [1])	Ambit profiling (various enzymes [2])	Ambit profiling (various enzymes [3]; JAK1(JH1domain-catalytic))	Ambit profiling (various enzymes [3]; JAK1(JH2domain-pseudokinase))	Ambit profiling (various enzymes [4])
CN1Cc2nn(C)cc2-c2cnc3[nH]cc(c3c2)-c2cnn(c2)CCCC1=O [Compound 41, (Z)-31,5-dimethyl-11H,21H,31H-5-aza-2(3,5)-pyrrolo[2,3-b]pyridina-1(4,1),3(4,3)-dipyrazolacyclononaphan-6-one]	7.8	22	18	9.1	80
CN1Cc2nn(C)c(C#N)c2-c2cnc3[nH]cc(c3c2)-c2cn(nc2C(F)(F)F)CCCC1=O [Compound 48, (Z)-31,5-dimethyl-6-oxo-13-(trifluoromethyl)-11H,21H,31H-5-aza-2(3,5)-pyrrolo[2,3-b]pyridina-1(4,1),3(4,3)-dipyrazolacyclononaphane-35-carbonitrile]	77	100	100	100	99
